From US20150157682A1, “VALERIAN EXTRACTS AND USES THEREOF” (priority 2012, published 2015)

Target: benzodiazepine receptors (3H-flunitrazepam labelled binding sites)
Assay: 3H-flunitrazepam competition binding assay, crude synaptosomal membranes of rat frontal cortex
Settings: 1 nM 3H-flunitrazepam
Description: For the binding experiment male RjHan:WI rats (Janvier, Le Genest-Saint-Isle, France) were used. […] The animals were housed in groups of 5 in Macrolon IV cages.
For the ^3H-GABA binding assay tissue (dissected rat frontal cortex) was homogenized in 50 mM Tris-HCl buffer pH 7.4 containing 120 mM NaCl, 5 mM KCl, 2 mM CaCl2 and 1 mM MgCl2; for ^3H-flunitrazepam it was homogenized in 50 mM Tris-HCl buffer pH 7.4 containing 1 mM EGTA, 10 mM EDTA and 3 mM MgCl2, centrifuged (50.000 g, 15 min) and washed twice with the corresponding buffer. The resulting pellet was resuspended with buffer. […] Specific binding was calculated by subtracting non-specific binding—defined as that seen in the presence of 1 μM unlabelled GABA or 1 μM diazepam or chlordiazepoxide—from the total binding obtained with radioligand alone. In parallel VE-1, VE-2 and AVA were used for all binding assays. The incubation was terminated by addition of ice-cold buffer and rapid filtration through glass fibre filters. The filters were washed, dried, a scintillation cocktail was added, and radioactivity was counted using a β-counter (Beckman Coulter, Germany).

## CN1C(=O)CN=C(c2ccccc2)c2cc(Cl)ccc21 [Diazepam, diazepam]
  EC50: 400 ± 50 nM
